These are literature values, as cited in patent publication US8372452B2, “Oral herbal composition for the treatment of oral candidiasis” (Piramal Life Sciences Limited, priority 2008, dated 2013).

This data set concerns oral pathogens (Enterococcus faecalis, Streptococcus salivarius, Streptococcus mitis, Streptococcus mutans, Streptococcus sobrinus, Streptococcus sanguinis and …). The conditions noted are these: literature report, Silva M L et al. 2007.

Regarding (−)-cubebin, the “activity against oral pathogens (microorganisms)” value is recorded as “exhibited activity”.
